Reference: patent publication US11963948B1, “2-(4-chlorophenyl)-4,5-bis(4-chlorophenyl)-1H-imidazole as an antimicrobial compound” (KING FAISAL UNIVERSITY, priority 2023, dated 2024)

Columns and labels:
Aspergillus flavus = experiment: Agar plate disc-diffusion, antifungal activity, Aspergillus flavus; type: cell-based; conditions: Sabouraud's dextrose agar, 37° C., 72 h
Procedure: (§1) The agar plate disc-diffusion method was applied. Sterilized filter papers (6 mm in diameter) were wetted with 10 μL of a solution of 2-(4-chlorophenyl)-4,5-bis(4-chlorophenyl)-1H-imidazole (IV) to be tested, containing 10 mg/mL in DMSO, and the discs were allowed to air dry. The discs were then placed onto the surface of agar plates (nutrient agar for bacteria and Sabouraud's dextrose agar for fungi) seeded with the test organism. Each plate contained 15 mL of the agar medium, previously seeded with 0.2 mL of the broth culture of each organism pregrown for 18 hours. The plates were incubated at 37° C. for 48 h, and 72 h for fungi. The inhibition zones were measured in mm. Discs impregnated with DMSO were used as a control, and its inhibition zone was subtracted from the tested compound actual inhibition zone.

[1] = test system: Chrysosporium keratinophilum; experiment: Agar plate disc-diffusion, antifungal activity, Chrysosporium keratinophilum; type: cell-based; conditions: Sabouraud's dextrose agar, 37° C., 72 h
Procedure: as §1, with “Sterilized filter papers (6 mm in diameter) were wetted with 10 μL of a solution of 2-(4-chlorophenyl)-4,5-bis(4-chlorophenyl)-1H-imidazole (IV) to be tested, containing 10 mg/mL in DMSO, and the discs were allowed to air dry.” left out

Bacillus cereus = experiment: Agar plate disc-diffusion, antibacterial activity, Bacillus cereus; type: cell-based; conditions: Bacillus cereus (Gram positive), nutrient agar, 37° C., 48 h
Procedure: as §1, with “Sterilized filter papers (6 mm in diameter) were wetted with 10 μL of a solution of 2-(4-chlorophenyl)-4,5-bis(4-chlorophenyl)-1H-imidazole (IV) to be tested, containing 10 mg/mL in DMSO, and the discs were allowed to air dry.” left out

Staphylococcus aureus = experiment: Agar plate disc-diffusion, antibacterial activity, Staphylococcus aureus; type: cell-based; conditions: Staphylococcus aureus (Gram positive), nutrient agar, 37° C., 48 h
Procedure: as §1, with “Sterilized filter papers (6 mm in diameter) were wetted with 10 μL of a solution of 2-(4-chlorophenyl)-4,5-bis(4-chlorophenyl)-1H-imidazole (IV) to be tested, containing 10 mg/mL in DMSO, and the discs were allowed to air dry.” left out

Pseudomonas aeruginosa = experiment: Agar plate disc-diffusion, antibacterial activity, Pseudomonas aeruginosa; type: cell-based; conditions: Pseudomonas aeruginosa (Gram negative), nutrient agar, 37° C., 48 h
Procedure: as §1, with “Sterilized filter papers (6 mm in diameter) were wetted with 10 μL of a solution of 2-(4-chlorophenyl)-4,5-bis(4-chlorophenyl)-1H-imidazole (IV) to be tested, containing 10 mg/mL in DMSO, and the discs were allowed to air dry.” left out

Escherichia coli = experiment: Agar plate disc-diffusion, antibacterial activity, Escherichia coli; type: cell-based; conditions: Escherichia coli (Gram negative), nutrient agar, 37° C., 48 h
Procedure: as §1, with “Sterilized filter papers (6 mm in diameter) were wetted with 10 μL of a solution of 2-(4-chlorophenyl)-4,5-bis(4-chlorophenyl)-1H-imidazole (IV) to be tested, containing 10 mg/mL in DMSO, and the discs were allowed to air dry.” left out

[2] = A = concentration of comp. = 10,000 μL
[3] = B = concentration of comp. = 30,000 μL
[4] = C = concentration of comp. = 50,000 μL
[5] = A = concentration of comp. = 10,000 µg/mL

O=C(O)c1cn(C2CC2)c2cc(N3CCNCC3)c(F)cc2c1=O [Cip., ciprofloxacin, reference compound]
inhibition zone (Aspergillus flavus; [2]): 29 mm
inhibition zone (Aspergillus flavus; [3]): 30 mm
inhibition zone (Aspergillus flavus; [4]): 42 mm
inhibition zone [1, 2]: 29 mm
inhibition zone [1, 3]: 30 mm
inhibition zone [1, 4]: 53 mm
inhibition zone (Bacillus cereus; [2]): 29 mm
inhibition zone (Bacillus cereus; [3]): 30 mm
inhibition zone (Bacillus cereus; [4]): 42 mm
inhibition zone (Staphylococcus aureus; [2]): 43 mm
inhibition zone (Staphylococcus aureus; [3]): 44 mm
inhibition zone (Staphylococcus aureus; [4]): 53 mm
inhibition zone (Pseudomonas aeruginosa; [5]): 29 mm
inhibition zone (Pseudomonas aeruginosa; [3]): 30 mm
inhibition zone (Pseudomonas aeruginosa; [4]): 53 mm
inhibition zone (Escherichia coli; [2]): 30 mm
inhibition zone (Escherichia coli; [3]): 39 mm
inhibition zone (Escherichia coli; [4]): 60 mm

Clc1ccc(-c2nc(-c3ccc(Cl)cc3)c(-c3ccc(Cl)cc3)[nH]2)cc1 [IV, 2-(4-chlorophenyl)-4,5-bis(4-chlorophenyl)-1H-imidazole]
inhibition zone (Aspergillus flavus; [2]): 23 mm
inhibition zone (Aspergillus flavus; [3]): 25 mm
inhibition zone (Aspergillus flavus; [4]): 33 mm
inhibition zone [1, 2]: 22 mm
inhibition zone [1, 3]: 27 mm
inhibition zone [1, 4]: 40 mm
inhibition zone (Bacillus cereus; [2]): 25 mm
inhibition zone (Bacillus cereus; [3]): 27 mm
inhibition zone (Bacillus cereus; [4]): 40 mm
inhibition zone (Staphylococcus aureus; [2]): 17 mm
inhibition zone (Staphylococcus aureus; [3]): 23 mm
inhibition zone (Staphylococcus aureus; [4]): 34 mm
melting point: 211 to 212 °C
inhibition zone (Pseudomonas aeruginosa; [5]): 24 mm
inhibition zone (Pseudomonas aeruginosa; [3]): 26 mm
inhibition zone (Pseudomonas aeruginosa; [4]): 43 mm
inhibition zone (Escherichia coli; [2]): 25 mm
inhibition zone (Escherichia coli; [3]): 30 mm
inhibition zone (Escherichia coli; [4]): 48 mm
